Patent publication US20100204157A1, “USE OF A PEPTIDE AS A THERAPEUTIC AGENT” (priority 2007, published 2010)
Where no end group is shown, it is not given here.

System: drug-resistant Mycobacterium tuberculosis
Conditions: 5 micrograms per ml

FFVAP [Phe-Phe-Val-Ala-Pro]
% inhibition: 0.0%
